Common to all, as to assay type: cell-based
Experiment [1] addresses T1, FKBP* (FKBP12 F36V), HA-tagged (Homo sapiens, UniProt P62942, F37V).
T1 construct: expressed in transfected cells; host or cells: 293FT cells (CRBN-WT or CRBN-/-)
Put plainly: Immunoblot of FKBP* degradation in 293FT cells (CRBN-WT or CRBN−/−). To be noted: for degradation of FKBP*: 100 nM. Here is the method: (§1) 293FT cells (CRBN-WT or CRBN−/−) expressing either HA-tagged FKBP12WT or FKBP* were treated with indicated concentrations of dFKBP7 for 4 hours.
(§2) Isogenic 293FT cells (CRBN-WT or CRBN−/−) expressing either FKBP12WT or FKBP* were treated with 100 nM of either dFKBP7 or dFKBP13 for 4 hours.
Isogenic 293FT cells (CRBN-WT or CRBN−/−) expressing HA-tagged FKBP* were treated with the indicated dose of dFKBP13 for 4 hours.
293FT cells (CRBN-WT) expressing FKBP* were pretreated with 1 uM Carfilzomib (proteasome inhibitor), 0.5 uM MLN4924 (neddylation inhibitor), and 10 uM Lenalidomide (CRBN binding ligand) for two hours prior to a 4 hour treatment with dFKBP13.
The dTAG is predicated on the selectivity of FKBP* specific ligands over endogenous, wild type FKBP. In 293T cells expressing wild type FKBP12 or FKBP*, dFKBP7 induces targeted degradation only in FKBP* expressing cells. […] 293FT cells (CRBN-WT or CRBN−/−) expressing either HA-tagged FKBP12WT or FKBP* were treated with indicated concentrations of dFKBP7 for 4 hours.
In 293T cells expressing wild type FKBP12 or FKBP*, treatment with dFKBP7 and dFKBP13 induces targeted degradation only in FKBP* expressing cells. Isogenic 293FT cells (CRBN-WT or CRBN−/−) were engineered to expressed either FKBP12WT or FKBP*. Cells were treated with 100 nM of either dFKBP7 or dFKBP13 for 4 hours before lysates were prepared for western immunoblot analysis.
In an effort to define the optimal concentration of dFKB13 heterobifunctional compound to induce degradation of FKBP*, degradation was measured upon treatment with increasing concentrations of dFKBP13. Isogenic 293FT cells (CRBN-WT or CRBN−/−) were engineered to expressed HA-tagged FKBP*. Cells were treated with the indicated dose of dFKBP13 for 4 hours before lysates were prepared for western immunoblot analysis.
293FT cells (CRBN-WT) were engineered to express FKBP*. Cells were pretreated with 1 uM Carfilzomib (proteasome inhibitor), 0.5 uM MLN4924 (neddylation inhibitor), and 10 uM Lenalidomide (CRBN binding ligand) for two hours prior to a 4 hour treatment with dFKBP13. Lysates were prepared and western immunoblot analysis performed.
On the technique in general: Immunoblotting shows a protein as a band on a membrane.

The target in the next experiment is T2, FKBP12WT (Homo sapiens, UniProt P62942).
T2 construct: expressed in transfected cells; host or cells: 293FT cells (CRBN-WT or CRBN-/-)
Nature of the experiment: Immunoblot of wild type FKBP12 in 293FT cells (selectivity control). The conditions noted are these: 293FT CRBN-WT or CRBN−/−, indicated concentrations, 4 hours. Here is the method: as §1, §2
The dTAG is predicated on the selectivity of FKBP* specific ligands over endogenous, wild type FKBP. […] 293FT cells (CRBN-WT or CRBN−/−) expressing either HA-tagged FKBP12WT or FKBP* were treated with indicated concentrations of dFKBP7 for 4 hours.
Isogenic 293FT cells (CRBN-WT or CRBN−/−) were engineered to expressed either FKBP12WT or FKBP*. Cells were treated with 100 nM of either dFKBP7 or dFKBP13 for 4 hours before lysates were prepared for western immunoblot analysis.

The test system of experiment [2] is indicated proteins fused to mutant FKBP* with an HA tag. Put plainly: Immunoblot of proteins fused to FKBP* in MV4;11 leukemia cells. The conditions noted are these: MV4;11 cells, 16 hours, indicated concentrations.
From the text: Immunoblots of MV4;11 leukemia cells expressing indicated proteins fused to mutant FKBP* with an HA tag.
To test the general utility of the dTAG technology across several protein types, the indicated proteins fused to the dTAG in MV4;11 leukemia cells were expressed.
Experiment [3] relates to NIH3T3 cells expressing dTAG-KRASG12V. Put plainly: Propidium iodide cell cycle analysis of NIH3T3 cells expressing dTAG-KRASG12V. To be noted: 48 hours. Here is the method:
FIG. 20 is a bar graph illustrating NIH3T3 cells expressing dTAG-KRASG12V treated with dFKBP7 and dFKBP13 for 48 hours to induce targeted dTAG-KRASG12V degradation. Fixed cells were stained with propidium iodide and cell cycle analysis was performed.
NIH3T3 cells were engineered to express dTAG-KRASG12V. NIH3T3 cells expressing dTAG-KRASG12V were treated with dFKBP7 and dFKBP13 for 48 hours to induce targeted dTAG-KRASG12V degradation. Fixed cells were stained with propidium iodide and cell cycle analysis was performed.

Experiment [4] has as its system dTAG-KRAS alleles (WT, G12C, G12D, G12V, G13D, Q61L, Q61R). Put plainly: Immunoblot of dTAG-KRAS WT and mutant alleles in NIH3T3 cells. To be noted: 1 uM, 24 hours. Here is the method: FIG. 16 is an immunoblot of NIH3T3 cells expressing KRAS alleles either WT or mutant forms of amino acid glycine 12 (G12C, G12D, and G12V) treated with 1 uM of dFKBP13 for 24 hours.
FIG. 17 is an immunoblot of NIH3T3 cells expressing either WT or mutant KRAS alleles (G13D, Q61L, and Q61R) treated with 1 uM of dFKBP13 for 24 hours.
The dFKBP13 heterobifunctional compound potently degrades dTAG-KRAS mutant alleles. NIH3T3 cells were engineered to express KRAS alleles either WT or mutant forms of amino acid glycine 12 (G12C, G12D, and G12V). Western blotting of NIH3T3 cells expressing dTAG fused to the N-terminus of KRAS alleles were treated with 1 uM of dFKBP13 for 24 hours. Cells were harvested and immunoblotted to measure degradation of dTAG-KRAS and downstream surrogates of KRAS signaling (e.g. pMEK and pAKT).
The dFKBP13 heterobifunctional compound potently degrades dTAG-KRAS mutant alleles. NIH3T3 cells were engineered to express either WT or mutant KRAS alleles (G13D, Q61L, and Q61R). Western blotting of NIH3T3 cells expressing dTAG fused to the N-terminus of KRAS alleles were treated with 1 uM of dFKBP13 for 24 hours. Cells were harvested and immunoblotted to measure degradation of dTAG-KRAS and downstream surrogates of KRAS signaling (e.g. pMEK and pAKT).

Experiment [5] relates to NIH3T3 cells expressing FKBP*-KRASG12V. Put plainly: Phase contrast imaging of NIH3T3 cells expressing dTAG-KRAS. The conditions noted are these: NIH3T3 overexpressing dTAG-KRAS, 24 hours. Here is the method:
FIG. 18A, FIG. 18B, FIG. 18C, and FIG. 18D are panels of phase contrast images of control NIH3T3 cells or NIH3T3 expressing FKBP* fused to the N-terminus of KRASG12V treated with DMSO of dFKBP13 for 24 hours.

Where [6] appears, read: 293FT CRBN-WT or CRBN−/−, 4 hours.

T1 sequence (P62942 2-108 F37V limits assumed): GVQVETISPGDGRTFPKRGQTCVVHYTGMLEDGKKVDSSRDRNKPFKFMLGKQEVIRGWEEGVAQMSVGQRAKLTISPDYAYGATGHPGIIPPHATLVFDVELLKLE
T2 sequence (P62942 whole entry): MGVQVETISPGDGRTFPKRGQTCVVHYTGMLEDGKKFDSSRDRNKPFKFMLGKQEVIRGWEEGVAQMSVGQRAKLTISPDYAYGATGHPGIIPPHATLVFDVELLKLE

On to `CC[C@H](C(=O)N1CCCC[C@H]1C(=O)O[C@H](CCc1ccc(OC)c(OC)c1)c1cccc(OCC(=O)NCCCOCCOCCOCCCNC(=O)COc2cccc3c2C(=O)N(C2CCC(=O)NC2=O)C3=O)c1)c1cc(OC)c(OC)c(OC)c1` (stereo partly shown) [dFKBP7], for which the “degradation of FKBP*” value in experiment [1] (setting [6]) is “CRBN-dependent degradation of FKBP*”. Besides, in experiment [1] (293FT CRBN-WT or CRBN−/−, indicated concentrations, 4 hours), the “degradation of HA-tagged FKBP*” value was “CRBN-dependent degradation of FKBP*”. For the same compound, the “degradation of HA-tagged FKBP12WT” value at FKBP12WT was “not FKBPWT”. Moreover, the “degradation of proteins fused to dTAG” value in experiment [2] is reported as “degradation was observed with nanomolar concentrations”. Besides, the “cell cycle profile (S-phase entry)” value in experiment [3] is on record as “diminished S-phase entry”.
As for `CC[C@H](C(=O)N1CCCC[C@H]1C(=O)O[C@H](CCc1ccc(OC)c(OC)c1)c1cccc(OCC(=O)NCCCCCCOc2cccc3c2C(=O)N(C2CCC(=O)NC2=O)C3=O)c1)c1cc(OC)c(OC)c(OC)c1` (stereo partly shown) [dFKBP13], in experiment [1] (setting [6]), the “degradation of FKBP*” value is reported as “CRBN-dependent degradation of FKBP*”. The “dose dependence of degradation of HA-tagged FKBP*” value in experiment [1] (293FT CRBN-WT or CRBN−/−, indicated dose, 4 hours) was “dose- and CRBN-dependent degradation”. Also, the “mechanism of FKBP* degradation” value in experiment [1] (293FT CRBN-WT, 4 hour treatment after inhibitor pretreatment) is “CRBN- and proteasome-dependent degradation”. In experiment [2], the “degradation of proteins fused to dTAG” value is “degradation was observed with nanomolar concentrations”. Further, the “degradation of dTAG-KRAS alleles” value is “potent degradation of WT and mutant KRAS alleles” in experiment [4] (G12C, G12D, G12V); “potent degradation of WT and mutant KRAS alleles” in experiment [4] (G13D, Q61L, Q61R). In addition, the cell morphology entry in experiment [5] is “morphologically revert back to the wild type (DMSO control) state”. The “cell cycle profile (S-phase entry)” value in experiment [3] is reported as “diminished S-phase entry”.

(Values after patent publication US11293023B2, “Tunable endogenous protein degradation” (Dana-Farber Cancer Institute, Inc., priority 2015, dated 2022).)
